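Growth conditions: 96-well plates. Treatment: test compound, 48 hours, 5 concentrations. Analysis: linear interpolation between bracketing concentrations; unreached endpoints set to highest concentration. Definition used: TGI = concentration required for complete inhibition of growth.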

In PubChem BioAssay (NCI) one finds TGI data, which are given here for twelve compounds.

Some test systems named below: CCRF-CEM leukemia; EKVX NSCLC; IGROV1 ovarian; M14 melanoma; MALME-3M melanoma; MCF7 breast; MOLT-4 leukemia; NCI-H226 lung; NCI-H460 lung; NCI-H522 lung; OVCAR-4 ovarian; PC-3 prostate; SF-539 CNS; SK-MEL-5 melanoma; SNB-19 CNS; SNB-75 CNS; SR leukemia; UACC-257 melanoma; UO-31 renal; A498 renal.
Test in all cases: NCI anticancer screen, dose series, 48 h

Take `COC(=O)C(C)(C)[C@@H]1OC(=O)N(S(=O)(=O)c2c(C)cc(C)cc2C)[C@H]1C(C)C`: the TGI with CCRF-CEM leukemia, with EKVX NSCLC, in the assay on IGROV1 ovarian, with M14 melanoma, in the assay on MALME-3M melanoma and with MCF7 breast was over 100 µM each time. Besides, the TGI in the assay on MOLT-4 leukemia, in the assay on NCI-H226 lung, in the assay on NCI-H460 lung, in the assay on NCI-H522 lung, in the assay on OVCAR-4 ovarian and with PC-3 prostate was over 100 µM each time. Moreover, the TGI in the assay with SF-539 CNS, in the assay on SK-MEL-5 melanoma, in the assay with SNB-19 CNS, with SNB-75 CNS, in the assay on SR leukemia and in the assay with UACC-257 melanoma was over 100 µM throughout. Besides, the TGI in the assay with UO-31 renal is over 100 µM.

As to `O=c1cc(CSc2c(-c3ccccc3)c(=O)n(-c3ccccc3)c(=S)n2-c2ccccc2)[nH]c(=O)[nH]1`, the TGI in the assay on A498 renal, in the assay on CCRF-CEM leukemia, in the assay on EKVX NSCLC, in the assay with IGROV1 ovarian, with M14 melanoma and in the assay with MCF7 breast was over 100 µM throughout. Also, the TGI with MOLT-4 leukemia, in the assay with NCI-H460 lung, in the assay on PC-3 prostate, in the assay with SF-539 CNS, with SK-MEL-5 melanoma and in the assay on SNB-19 CNS was over 100 µM in each case. Besides, the TGI in the assay on SNB-75 CNS, with SR leukemia, in the assay on UACC-257 melanoma and with UO-31 renal was over 100 µM each time.

As to `Cc1ccc(-c2n[nH]c(=O)n2NC(=O)c2ccccc2C(=O)O)cc1`, the TGI in the assay on IGROV1 ovarian, in the assay on M14 melanoma, with MALME-3M melanoma, in the assay with MCF7 breast, with MOLT-4 leukemia and with NCI-H226 lung was over 100 µM each time. Further, the TGI in the assay on NCI-H460 lung, with NCI-H522 lung, with PC-3 prostate, in the assay on SF-539 CNS, in the assay on SK-MEL-5 melanoma and with SNB-19 CNS was over 100 µM throughout. Besides, the TGI in the assay on SNB-75 CNS, in the assay on SR leukemia, with UACC-257 melanoma and in the assay on UO-31 renal was over 100 µM in each case.

On to `C/C=C1\CC2C(=O)CCC2C2c3ccccc3OC12` (stereo unspecified), for which the TGI with CCRF-CEM leukemia, in the assay on EKVX NSCLC, with IGROV1 ovarian, with M14 melanoma, in the assay with MALME-3M melanoma and with MCF7 breast was over 100 µM throughout. For the same compound, the TGI in the assay with MOLT-4 leukemia, with NCI-H226 lung, in the assay with NCI-H460 lung, in the assay with NCI-H522 lung, in the assay with OVCAR-4 ovarian and in the assay on PC-3 prostate was over 100 µM throughout. The TGI in the assay with SF-539 CNS, in the assay with SK-MEL-5 melanoma, with SNB-19 CNS, in the assay on SNB-75 CNS, with SR leukemia and with UACC-257 melanoma was over 100 µM in each case. Further, in the assay on UO-31 renal, the TGI is over 100 µM.

As for `CCCN(CCC)C(=S)N/N=C/c1ccccn1`, the TGI in the assay with A498 renal was 4.03 µM; with CCRF-CEM leukemia, 0.255 µM; in the assay with EKVX NSCLC, 11.3 µM; with M14 melanoma, 0.281 µM; with MALME-3M melanoma it was 6.05 µM; in the assay on NCI-H226 lung, 1.14 µM. Moreover, the TGI in the assay on NCI-H460 lung stood at 0.187 µM; in the assay on NCI-H522 lung, 1.67 µM; in the assay with OVCAR-4 ovarian, 0.9 µM; in the assay with PC-3 prostate, 16.1 µM; with SF-539 CNS, 0.734 µM; in the assay with SK-MEL-5 melanoma, 0.954 µM. The TGI was 32.1 µM in the assay on SNB-19 CNS; 0.413 µM with SNB-75 CNS; 0.247 µM in the assay with SR leukemia; 0.195 µM in the assay on UACC-257 melanoma; 4 µM in the assay with UO-31 renal.

With `CN(C)CCNC(=O)c1cccc2c(NC(CS)C(=O)O)c3ccccc3[n+](C)c12` (stereo unspecified), the TGI in the assay on A498 renal, in the assay with EKVX NSCLC, in the assay on IGROV1 ovarian, in the assay with M14 melanoma, in the assay on MALME-3M melanoma and in the assay with MCF7 breast was over 100 µM in each case. Also, the TGI with MOLT-4 leukemia, with NCI-H460 lung, with OVCAR-4 ovarian, with PC-3 prostate, in the assay on SF-539 CNS and in the assay with SK-MEL-5 melanoma was over 100 µM each time. In addition, the TGI with SNB-19 CNS, with SNB-75 CNS, with SR leukemia, in the assay on UACC-257 melanoma and with UO-31 renal was over 100 µM in each case.

For `CC(=O)OCC1OC(n2c3c(cc(C#N)c2=S)CCC3)C(OC(C)=O)C(OC(C)=O)C1OC(C)=O` (stereo unspecified), the TGI in the assay on A498 renal, in the assay with CCRF-CEM leukemia, in the assay on IGROV1 ovarian, in the assay with M14 melanoma, in the assay on MALME-3M melanoma and in the assay with MCF7 breast was over 100 µM in each case. Further, the TGI in the assay on MOLT-4 leukemia, in the assay with NCI-H226 lung, in the assay with NCI-H460 lung, in the assay on NCI-H522 lung, in the assay with OVCAR-4 ovarian and in the assay with PC-3 prostate was over 100 µM throughout. Moreover, the TGI in the assay on SF-539 CNS, in the assay on SK-MEL-5 melanoma, in the assay with SNB-19 CNS, in the assay on SNB-75 CNS, with SR leukemia and in the assay with UACC-257 melanoma was over 100 µM throughout. Moreover, the TGI with UO-31 renal was over 100 µM.

Take `O=C(CC(C(=O)c1cccs1)c1ccsc1)c1ccccc1` (stereo unspecified): the TGI with A498 renal is over 100 µM; in the assay with CCRF-CEM leukemia, over 100 µM; in the assay on EKVX NSCLC, over 100 µM; in the assay on IGROV1 ovarian, over 100 µM; with M14 melanoma, over 100 µM; with MCF7 breast it was 99.1 µM. In addition, the TGI in the assay with MOLT-4 leukemia, with NCI-H226 lung, in the assay with NCI-H460 lung, in the assay on NCI-H522 lung, with OVCAR-4 ovarian and with SF-539 CNS was over 100 µM in each case. Further, the TGI with SK-MEL-5 melanoma, in the assay with SNB-75 CNS, in the assay on SR leukemia, with UACC-257 melanoma and in the assay with UO-31 renal was over 100 µM each time.

With `O=C(CCCN1CCC(Nc2ccccc2)(c2nnnn2C2CCCCC2)CC1)c1ccc(F)cc1`, the TGI in the assay with CCRF-CEM leukemia is 44.6 µM; in the assay on EKVX NSCLC, 9.53 µM; in the assay with IGROV1 ovarian, 23.2 µM; in the assay on M14 melanoma, 3.98 µM; in the assay on MALME-3M melanoma it was 27.4 µM; in the assay with MCF7 breast it was 5.74 µM. Further, the TGI worked out at 46.2 µM in the assay with MOLT-4 leukemia; 36.5 µM in the assay with NCI-H226 lung; 35 µM in the assay with NCI-H460 lung; 19.3 µM in the assay with NCI-H522 lung; 20.5 µM in the assay with OVCAR-4 ovarian; 24.7 µM in the assay with PC-3 prostate. Also, the TGI with SF-539 CNS is 5.66 µM; in the assay with SK-MEL-5 melanoma it was 3 µM; in the assay with SNB-19 CNS, 21.4 µM; in the assay with SNB-75 CNS, 21.9 µM; in the assay with SR leukemia, over 100 µM; in the assay on UACC-257 melanoma it was 6.65 µM. In the assay on UO-31 renal, this compound came in with a TGI of 12.8 µM.

For the compound `COc1ccc2nc3c([N+](=O)[O-])ccc(NCCCN(C)C)c3c(NCCCN(C)C)c2c1`, the TGI was 2.4 µM with CCRF-CEM leukemia; 5.09 µM with EKVX NSCLC; 4.07 µM with IGROV1 ovarian; over 10 µM with M14 melanoma; over 10 µM with MALME-3M melanoma; 2.33 µM in the assay with MCF7 breast. The TGI in the assay with MOLT-4 leukemia was 1.26 µM; in the assay with OVCAR-4 ovarian, 2.29 µM; in the assay with PC-3 prostate it was 2.24 µM; with SK-MEL-5 melanoma, 3.46 µM; in the assay on SNB-75 CNS, 3.49 µM; with SR leukemia it was 1.14 µM. Besides, the TGI with UACC-257 melanoma is over 10 µM.

As for `COc1ccc(-c2c3c(n(C4OC(COC(C)=O)C(OC(C)=O)C(OC(C)=O)C4OC(C)=O)c(=S)c2C#N)CCC3)cc1` (stereo unspecified), the TGI in the assay on CCRF-CEM leukemia, in the assay with IGROV1 ovarian, in the assay on M14 melanoma, with MALME-3M melanoma, in the assay with MCF7 breast and in the assay on MOLT-4 leukemia was over 100 µM throughout. The TGI in the assay with NCI-H460 lung, in the assay with OVCAR-4 ovarian, in the assay on PC-3 prostate, in the assay with SF-539 CNS, in the assay with SK-MEL-5 melanoma and in the assay on SNB-19 CNS was over 100 µM in each case. Further, the TGI in the assay on SNB-75 CNS, with SR leukemia, with UACC-257 melanoma and in the assay on UO-31 renal was over 100 µM each time.

As for `CCN(CC)CCN(C(=Nc1ccccc1)N1CCCCC1)c1ccccc1`, the TGI in the assay on CCRF-CEM leukemia is 46.5 µM; in the assay on EKVX NSCLC, over 100 µM; in the assay on IGROV1 ovarian it was 20.6 µM; in the assay on M14 melanoma, 21.7 µM; in the assay with MALME-3M melanoma it was 40.1 µM; in the assay with MCF7 breast, 56.7 µM. Also, the TGI turned out to be 25.2 µM in the assay with MOLT-4 leukemia; 29.3 µM in the assay on NCI-H226 lung; 24.8 µM in the assay on NCI-H460 lung; 13.2 µM in the assay with NCI-H522 lung; 57.8 µM in the assay on OVCAR-4 ovarian; 24.8 µM with PC-3 prostate. For the same compound, the TGI is 40 µM with SF-539 CNS; 17.6 µM with SK-MEL-5 melanoma; over 100 µM with SNB-19 CNS; 23.6 µM in the assay on SR leukemia; 34.7 µM in the assay with UACC-257 melanoma; 26.5 µM in the assay on UO-31 renal.
